Patent US8592181B2, “Brazzein variant having higher sweetness and method for preparing multi-variant” (Chung-Ang University Industry-Academy Cooperation Foundation, priority 2009, dated 2013)
Where no end group is shown, it is not given here.

Legend:
human sense of taste = experiment: Sweetness measured by human sense of taste (20 trained subjects, minimum concentration at which sweetness is first sensed); type: in vivo; settings: for Multiples of increased sweetness to minor-type brazzein / Minimum stimulation level in which one senses sweetness for first time: primary brazzein variants; for Multiples of increased sweetness to minor-type brazzein: relative to minor-type brazzein; for Minimum stimulation level in which one senses sweetness for first time: 20 trained subjects; for Sweetness ratios of sucrose (1 g/100 ml) to primary brazzein variants (minor-type brazzein: 2000): relative to 1 g/100 ml sucrose threshold
Protocol: Since the recombinant brazzein according to the present invention is not a sucrose-based compound having a cyclic ring, the sweetness of the recombinant brazzein was not measured using a saccharometer. Therefore, the activity of the recombinant brazzein was measured using the human sense of taste. Sugar content measurement was performed on 20 subjects who were trained to feel substantially the same minimum concentration of sucrose in which they could sense sweetness using a sucrose solution. That is, a concentration of each brazzein variant in which the subjects could sense sweetness for the first time was measured. Also, a sweetness ratio of the sucrose solution to the wild-type brazzein was 1 g/100 ml, which was a minimum stimulation level in which the subjects could sense sweetness. Also, a sweetness ratio of the minor-type brazzein protein to the wild-type brazzein was 500 μg/100 ml, which was a minimum stimulation level in which the subjects could sense sweetness. Therefore, the sweetness was calculated using the sweetness ratios (That is, 1/0.0005=2000 for the minor-type brazzein).
Also, the brazzein multi-variants were measured for activity (sweetness) in the same manner as in Example 3-1.

[1] = Thermal stability: heated at 80° C. for 4 hours in 50 mM Tris-HCl (pH 8.0), sweetness change level measured by the 20 subjects; type: physicochemical; settings: primary variants
Protocol: On the basis of the results measured in Example 3-1, 100 mg of each of the brazzein variants having high sweetness, that is, brazzein(H30K) set forth in SEQ ID NO: 99, brazzein(H30R) set forth in SEQ ID NO: 100, brazzein(E35D) set forth in SEQ ID NO: 109, brazzein(E40A) set forth in SEQ ID NO: 113, brazzein(E40A) set forth in SEQ ID NO: 113, brazzein(E40D) set forth in SEQ ID NO: 114, brazzein(E40K) set forth in SEQ ID NO: 115, brazzein(E40H) set forth in SEQ ID NO: 116 and brazzein(E40R) set forth in SEQ ID NO: 117, was dissolved in a 50 mM Tris-HCl (pH 8.0) solution, and heated at 80° C. for 4 hours. Based on the sweetness measured before the heat treatment of the respective primary brazzein variants, a sweetness change level of each primary brazzein variant was then measured by the 20 subjects in the same manner as in Example 3-1.
Also, the brazzein multi-variants were measured for thermal stability in the same manner as in Example 3-2. […] From the high performance liquid chromatography analysis of the quaternary variants out of the brazzein multi-variants, it was confirmed that the quaternary variants maintained their constant thermal stability in spite of the fact that the quaternary variants had different structural properties than the minor-type brazzein protein.

[2] = cited from earlier work; for Thermal stability: related art
sweetness = settings: cited from earlier work; for Sweetness relative to sugar (sucrose): related art

Molecule | Multiples of increased sweetness to minor-type brazzein (human sense of taste) | Minimum stimulation level in which one senses sweetness for first time (human sense of taste) [μg/100 ml] | Sweetness ratios of sucrose (1 g/100 ml) to primary brazzein variants (minor-type brazzein: 2000) (human sense of taste) | Thermal stability (relative activity after heat treatment) [1] | Solubility and pH stability in water ([2]; Gao et al. 1999) | Thermal stability [2] | Sweetness relative to sugar (sucrose) (sweetness) | Sweetness relative to the major type of brazzein (sweetness; Assadi-Porter et al. 2000)
E40R: primary brazzein variant: Glu at position 40 of minor-type brazzein substituted with Arg (DKCKKVYENYPVSKCQLANQCNYDCKLRKHARSGECFYDRKRNLQCICDYCEY; Brazzein(E40R)) [Brazzein E40R] | 2 | 250 | 4,000 | maintained their thermal stabilities |  |  |  | 
Brazzein: sweetener protein extracted from the fruit of Pentadiplandra brazzeana (Baillon) (QDKCKKVYENYPVSKCQLANQCNYDCKLDKHARSGECFYDEKRNLQCICDYCEY; UniProt P56552 1-54, looked up) |  |  |  |  | very high | very high |  | 
E40D: primary brazzein variant: Glu at position 40 of minor-type brazzein substituted with Asp (DKCKKVYENYPVSKCQLANQCNYDCKLRKHARSGECFYDDKRNLQCICDYCEY; Brazzein(E40D)) [Brazzein E40D] |  | 150 | 6,600 | maintained their thermal stabilities |  |  |  | 
H30R: primary brazzein variant: His at position 30 of minor-type brazzein substituted with Arg (DKCKKVYENYPVSKCQLANQCNYDCKLRKRARSGECFYDEKRNLQCICDYCEY; Brazzein(H30R)) [Brazzein H30R] | 3.3 | 150 | 6,600 | maintained their thermal stabilities |  |  |  | 
O=C1NS(=O)(=O)c2ccccc21 [saccharin] |  |  |  |  |  |  | approximately 500 times | 
Monellin |  |  |  |  |  | low | 3,000 times | 
E40A: primary brazzein variant: Glu at position 40 of minor-type brazzein substituted with Ala (DKCKKVYENYPVSKCQLANQCNYDCKLRKHARSGECFYDAKRNLQCICDYCEY; Brazzein(E40A)) [Brazzein E40A] | 3.3 | 150 | 6,600 | maintained their thermal stabilities |  |  |  | 
minor-type brazzein: wild-type minor type of brazzein, 53 amino acid residues without pyroglutamic acid at the amino-terminal region (DKCKKVYENYPVSKCQLANQCNYDCKLRKHARSGECFYDEKRNLQCICDYCEY; ends and bridges not checked; cysteine pairing not given here) [reference compound] |  | 500 | 2000 |  |  |  |  | approximately twice
C=C1C[C@@]23CC[C@H]4[C@@](C)(CCC[C@@]4(C)C(=O)O[C@@H]4O[C@H](CO)[C@@H](O)[C@H](O)[C@H]4O)[C@@H]2CC[C@]1(O[C@@H]1O[C@H](CO)[C@@H](O)[C@H](O)[C@H]1O[C@@H]1O[C@H](CO)[C@@H](O)[C@H](O)[C@H]1O)C3 [stevioside] |  |  |  |  |  |  | 200 times | 
E40K: primary brazzein variant: Glu at position 40 of minor-type brazzein substituted with Lys (DKCKKVYENYPVSKCQLANQCNYDCKLRKHARSGECFYDKKRNLQCICDYCEY; Brazzein(E40K)) [Brazzein E40K] | 3.3 | 150 | 6,600 | maintained their thermal stabilities |  |  |  | 
E35D: primary brazzein variant: Glu at position 35 of minor-type brazzein substituted with Asp (DKCKKVYENYPVSKCQLANQCNYDCKLRKHARSGDCFYDEKRNLQCICDYCEY; Brazzein(E35D)) [Brazzein E35D] | 3.3 | 150 | 6,600 | maintained their thermal stabilities |  |  |  | 
